Where two headings read alike, the source gives them in different places.
Key:
[1] = target: Beta Secretase enzyme (BACE) (Homo sapiens, UniProt P56817); assay: In vitro enzymatic BACE FRET (fluorescence resonance energy transfer) assay; type: biochemical
How it was run: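 A peptide bearing a fluorophore and quencher across the cleavage site serves as substrate at 50 nM. Reactions proceed one hour in acidic acetate buffer (0.05 M, pH 4.2) containing 10% DMSO final and 100 uM genapol, then are terminated with Tris and read fluorimetrically.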

[2] = test system: Aβ40 in conditioned medium of cells stably expressing Amyloid Precursor Protein (APP); assay: In vitro BACE cell-based assay (Aβ40 in conditioned medium, sandwich ELISA)
How it was run: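 Step two: 10-point compound titration added, starting 100 μM or 10 μM, 0.1% DMSO. Step three: medium Aβ40 measured by ELISA, capture 3 h and detection 2 h at 4° C, TRF read.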

[3] = average IC50, enzyme assay, read-out: BACE 1 FRET assay
[4] = Homo sapiens, HEK293, average IC50, read-out: HEK cell assay
[5] = Homo sapiens, HEK293, average IC50, HEK cells, read-out: HEK cell assay

Beta Secretase enzyme (BACE), sequence (P56817 46-501, species assumed): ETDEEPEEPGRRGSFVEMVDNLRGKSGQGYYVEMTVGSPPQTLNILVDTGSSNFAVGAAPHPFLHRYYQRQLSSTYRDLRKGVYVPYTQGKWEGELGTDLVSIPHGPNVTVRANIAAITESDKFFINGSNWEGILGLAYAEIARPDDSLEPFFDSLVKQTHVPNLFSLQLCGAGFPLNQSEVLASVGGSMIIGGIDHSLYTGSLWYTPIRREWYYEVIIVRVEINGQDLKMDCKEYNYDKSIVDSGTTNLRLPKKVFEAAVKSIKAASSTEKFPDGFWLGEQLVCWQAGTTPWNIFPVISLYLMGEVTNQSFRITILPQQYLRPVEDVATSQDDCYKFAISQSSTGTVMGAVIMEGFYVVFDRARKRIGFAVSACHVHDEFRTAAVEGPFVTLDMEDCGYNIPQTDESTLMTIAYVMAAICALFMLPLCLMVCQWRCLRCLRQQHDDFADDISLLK

IC50 [1, 3]	IC50 [2, 4]	IC50 [2, 5]	Compound	other results
3.59 µM	≥ 10000 nM		NC1=N[C@@]2(CO1)c1cc(C3=CCOCC3)cc(F)c1Oc1ccc(-c3cncnc3)c(F)c12 [Example 1041, (4S)-7′-(3,6-dihydro-2H-pyran-4-yl)-1′,5′-difluoro-2′-(5-pyrimidinyl)spiro[1,3-oxazole-4,9′-xanthen]-2-amine]	
0.0046 µM	96 nM		NC1=N[C@@]2(CS1)c1cc(-c3cncc(F)c3)ccc1Oc1ncc(-c3ncccn3)cc12 [Example 771, (5S)-7-(5-fluoro-3-pyridinyl)-3-(2-pyrimidinyl)spiro[chromeno[2,3-b]pyridine-5,4′-[1,3]thiazol]-2′-amine]	
3.81 µM	≥ 10000 nM		NC1=N[C@@]2(CO1)c1cc(OCc3cccnc3)ccc1Oc1ncc(Br)cc12 [Example 976, (5S)-3-bromo-7-(3-pyridinylmethoxy)spiro[chromeno[2,3-b]pyridine-5,4′-[1,3]oxazol]-2′-amine]	
0.0012 µM	3.2 nM		CC1(/C=C/c2cnc3c(c2)[C@]2(COC(N)=N2)c2cc(-c4ccc(F)nc4)ccc2O3)COC1 [Example 176, (5S)-7-(6-fluoro-3-pyridinyl)-3-((E)-2-(3-methyl-3-oxetanyl)ethenyl)spiro[chromeno[2,3-b]pyridine-5,4′-[1,3]oxazol]-2′-amine]	
0.0335 µM	318 nM		NC1=N[C@@]2(CO1)c1cc(Oc3cccc(Cl)n3)ccc1Oc1c(F)cc(N3CCOCC3)cc12 [Example 1060, (4S)-7′-((6-chloro-2-pyridinyl)oxy)-4′-fluoro-2′-(4-morpholinyl)spiro[1,3-oxazole-4,9′-xanthen]-2-amine]	
			CC1(C)C=C(c2cc3c(cn2)Oc2ccc(-c4cncnc4)cc2[C@@]32COC(N)=N2)CCO1 [Example 678, (5S)-3-(6,6-dimethyl-3,6-dihydro-2H-pyran-4-yl)-7-(5-pyrimidinyl)spiro[chromeno[2,3-c]pyridine-5,4′-[1,3]oxazol]-2′-amine]	IC50 ([1]; BACE 1 FRET assay (uM)): 0.0009 µM; IC50 ([2]; average IC50, HEK cells): 8 nM
0.0131 µM	35 nM		NC1=N[C@]2(CO1)c1cc(C3=CCOCC3)ccc1Oc1ccc(-c3cnccn3)cc12 [Example 192, (4R)-2′-(3,6-dihydro-2H-pyran-4-yl)-7′-(2-pyrazinyl)spiro[1,3-oxazole-4,9′-xanthen]-2-amine]	
0.0021 µM		62 nM	CC(C)(C)C#Cc1cc2c(cn1)Oc1ccc(-c3cccnc3F)cc1C21CSC(N)=N1 (centres unmarked) [Example 637, 3-(3,3-dimethyl-1-butyn-1-yl)-7-(2-fluoro-3-pyridinyl)spiro[chromeno[2,3-c]pyridine-5,4′-[1,3]thiazol]-2′-amine]	
0.0053 µM		158 nM	COc1ncc(F)cc1-c1ccc2c(c1)[C@@]1(COC(N)=N1)c1cc(/C=C/C(C)(C)C)ncc1O2 [Example 407, (5S)-3-((1E)-3,3-dimethyl-1-buten-1-yl)-7-(5-fluoro-2-methoxy-3-pyridinyl)spiro[chromeno[2,3-c]pyridine-5,4′-[1,3]oxazol]-2′-amine]	
0.0173 µM	302 nM		CCC(C)CSc1cnc2c(c1)[C@]1(COC(N)=N1)c1cc(-c3cccnc3)ccc1O2 (stereo partly drawn) [Example 99, (4′S)-3-(2-methylbutylthio)-7-(pyridin-3-yl)-5′H-spiro[chromeno[2,3-b]pyridine-5,4′-oxazol]-2′-amine]	
0.0368 µM	680 nM		COc1cccc(Nc2ccc3c(c2)[C@@]2(COC(N)=N2)c2cc(C4=CCOCC4)cc(F)c2O3)c1 [Example 197, (4S)-7′-(3,6-dihydro-2H-pyran-4-yl)-5′-fluoro-N~2~′-(3-methoxyphenyl)spiro[1,3-oxazole-4,9′-xanthene]-2,2′-diamine]	
0.0019 µM	699 nM		NC1=N[C@@]2(CO1)c1cc(-c3cncc(C#CC4CC4)c3)ccc1Oc1cnc(-c3ccnc(F)c3)cc12 [Example 815, (5S)-7-(5-(cyclopropylethynyl)-3-pyridinyl)-3-(2-fluoro-4-pyridinyl)spiro[chromeno[2,3-c]pyridine-5,4′-[1,3]oxazol]-2′-amine]	
0.043 µM		111 nM	CN(C)c1cc2c(cn1)Oc1ccc(-c3cccnc3)cc1[C@@]21COC(N)=N1 [Example 403, (5S)-N~3~,N~3~-dimethyl-7-(3-pyridinyl)spiro[chromeno[2,3-c]pyridine-5,4′-[1,3]oxazole]-2′,3-diamine]	
0.0007 µM	4 nM		CC#Cc1cncc(-c2ccc3c(c2)C2(COC(N)=N2)c2cc(C4CCOCC4)nc(F)c2O3)c1 (centres unmarked) [Example 750, 1-fluoro-7-(5-(1-propyn-1-yl)-3-pyridinyl)-3-(tetrahydro-2H-pyran-4-yl)spiro[chromeno[2,3-c]pyridine-5,4′-[1,3]oxazol]-2′-amine]	
0.0416 µM		188 nM	Cc1cc(-c2cc(F)c3c(c2)[C@]2(COC(N)=N2)c2cc(OCC4(C)COC4)ccc2O3)cnc1F [Example 445, (4S)-4′-fluoro-2′-(6-fluoro-5-methyl-3-pyridinyl)-7′-((3-methyl-3-oxetanyl)methoxy)spiro[1,3-oxazole-4,9′-xanthen]-2-amine]	
0.0009 µM		74 nM	NC1=NC2(CS1)c1cc(-c3cccnc3F)ccc1Oc1c2cc(-c2cccnc2F)nc1F (centres unmarked) [Example 682, 1-fluoro-3,7-bis(2-fluoro-3-pyridinyl)spiro[chromeno[2,3-c]pyridine-5,4′-[1,3]thiazol]-2′-amine]	
0.0165 µM	851 nM		Cc1ccnn1-c1cnc2c(c1)[C@]1(COC(N)=N1)c1cc(-c3cccnc3F)ccc1O2 [Example 1020, (5S)-7-(2-fluoro-3-pyridinyl)-3-(5-methyl-1H-pyrazol-1-yl)spiro[chromeno[2,3-b]pyridine-5,4′-[1,3]oxazol]-2′-amine]	
0.0021 µM		15.5 nM	CC1(C)C[C@H](c2cnc3c(c2)[C@]2(COC(N)=N2)c2cc(-c4cccc(Cl)c4)ccc2O3)CCO1 [Example 473, (5S)-7-(3-chlorophenyl)-3-((4R)-2,2-dimethyltetrahydro-2H-pyran-4-yl)spiro[chromeno[2,3-b]pyridine-5,4′-[1,3]oxazol]-2′-amine]	
0.0004 µM		2.1 nM	NC1=N[C@@]2(CO1)c1cc(-c3cccnc3F)ccc1Oc1c2cc(C2=CCOCC2)nc1F [Example 130, (S)-3-(3,6-dihydro-2H-pyran-4-yl)-1-fluoro-7-(2-fluoropyridin-3-yl)-5′H-spiro[chromeno[2,3-c]pyridine-5,4′-oxazol]-2′-amine]	
4.56 µM		≥ 10000 nM	COc1ccc2c(c1)[C@@]1(COC(N)=N1)c1cc(C3(F)COC3)cc(F)c1O2 [Example 709, (S)-4′-fluoro-2′-(3-fluorooxetan-3-yl)-7′-methoxy-5H-spiro[oxazole-4,9′-xanthen]-2-amine]	
0.0755 µM		64.9 nM	CC(C)(O)C#Cc1c(OCC2(C)COC2)ccc2c1[C@]1(COC(N)=N1)c1cc(-c3cccnc3)ccc1O2 [Example 518, 4-((4S)-2-amino-2′-((3-methyl-3-oxetanyl)methoxy)-7′-(3-pyridinyl)spiro[1,3-oxazole-4,9′-xanthen]-1′-yl)-2-methyl-3-butyn-2-ol]	
0.0046 µM	95 nM		NC1=N[C@]2(CO1)c1cc(C3=CCOCC3)cc(F)c1Oc1ccc(-c3cccnc3F)c(F)c12 [Example 1047, (4R)-7′-(3,6-dihydro-2H-pyran-4-yl)-1′,5′-difluoro-2′-(2-fluoro-3-pyridinyl)spiro[1,3-oxazole-4,9′-xanthen]-2-amine]	
0.0084 µM		20.5 nM	CC1(COc2ccc3c(c2Br)[C@]2(COC(N)=N2)c2cc(-c4cccnc4)ccc2O3)COC1 [Example 517, (4S)-1′-bromo-2′-((3-methyl-3-oxetanyl)methoxy)-7′-(3-pyridinyl)spiro[1,3-oxazole-4,9′-xanthen]-2-amine]	
0.0008 µM	14 nM		NC1=N[C@@]2(CS1)c1cc(-c3cnccc3F)ccc1Oc1ncc(C3=CCCOC3)cc12 [Example 773, (5S)-3-(5,6-dihydro-2H-pyran-3-yl)-7-(4-fluoro-3-pyridinyl)spiro[chromeno[2,3-b]pyridine-5,4′-[1,3]thiazol]-2′-amine]	
0.0003 µM	6 nM		NC1=N[C@@]2(CO1)c1cc(-c3cncc(C#CCO)c3)ccc1Oc1cnc(-c3ccnc(F)c3)cc12 [Example 825, 3-(5-((5S)-2′-amino-3-(2-fluoro-4-pyridinyl)spiro[chromeno[2,3-c]pyridine-5,4′-[1,3]oxazol]-7-yl)-3-pyridinyl)-2-propyn-1-ol]	
0.002 µM	120 nM		CC1(C)CC(c2cc3c(c(F)n2)Oc2ccc(-c4cccnc4F)cc2[C@]32CSC(N)=N2)=CCO1 [Example 1036, (5R)-3-(2,2-dimethyl-3,6-dihydro-2H-pyran-4-yl)-1-fluoro-7-(2-fluoro-3-pyridinyl)spiro[chromeno[2,3-c]pyridine-5,4′-[1,3]thiazol]-2′-amine]	
0.0232 µM	176 nM		CC1(C)C[C@@H](c2cc3c(cn2)Oc2ccc(-c4ccc(F)nc4)cc2[C@@]32COC(N)=N2)CCO1 [Example 379, (5S)-3-((4S)-2,2-dimethyltetrahydro-2H-pyran-4-yl)-7-(6-fluoro-3-pyridinyl)spiro[chromeno[2,3-c]pyridine-5,4′-[1,3]oxazol]-2′-amine]	

Compound	IC50 [1, 3]	IC50 [2, 4]	IC50 [2, 5]	other results
COC[C@H]1SC(N)=NC12c1cc(-c3cccnc3F)ccc1Oc1cnc(-c3ccnc(F)c3)cc12 (single isomer, unassigned) [Example 1095, (4′S/R,5′S)-7-(2-fluoropyridin-3-yl)-3-(2-fluoropyridin-4-yl)-5′-(methoxymethyl)-5′H-spiro[chromeno[2,3-c]pyridine-5,4′-thiazol]-2′-amine]	0.573 µM			IC50 ([2]; read-out: HEK cell assay): 5990 nM
